Assay results reported in patent US8980907B2, “Dendrimer conjugates” (The Regents of the University of Michigan, priority 2008, dated 2015).

How the values were obtained:
porcine liver esterase = assay: In vitro release of morphine from pro-drug with porcine liver esterase (HPLC); format: in vitro ADME; details: 20 μM, porcine liver esterase 0.01 U, phosphate buffer pH 7.0, 2 and 16 hours
Protocol: [drawing 26] was incubated with porcine liver esterase (Sigma, 0.01 U) in 20 mM phosphate buffer pH 7.0 for 2 and 16 hours. At the end of the time periods the samples were frozen at −20° C. and were thawed prior to loading onto the HPLC column.

Male Hartley guinea pigs = assay: Randall & Selitto paw pressure analgesia test in guinea pig; format: in vivo; details: pain threshold at 60, 150, 240 and 360 min after administration
Excerpt: Male Hartley guinea pigs (375-475 g) from Elm Hill labs were allowed free access to food and water before being used in the testing of analgesia effects free morphine, morphine complex, and morphine prodrug A complex
The Randall & Selitto test apparatus (Harvard Instruments) is used to measure analgesia and is based on determination of the animal threshold response to pain induced in the paw by the application of a uniformly increasing pressure from a conical tip upon the dorsal surface of the rear paw which rests on a platform. The weight in grams is taken upon withdrawal of the animals paw from the platform with five repeated measurements of pain threshold recorded for each time point (control, 60, 150, 240, and 360 min) after drug administration. Values are normalized to control and the mean±SEM for each time point are recorded. To reduce tissue damage to the animal a weight limit is used for all animals.

solid tumors = details: cited from earlier work

Structure (SMILES)	release of morphine from pro-drug (porcine liver esterase)	analgesia / release of morphine in vivo (Male Hartley guinea pigs)	in vivo activity in solid tumor models (solid tumors)
CN1CC[C@]23c4c5ccc(OC(=O)CCC(=O)OC(C)(C)C)c4O[C@H]2[C@@H](O)C=C[C@H]3[C@H]1C5 [Pro-drug A]	sustained release of morphine	sustained release of morphine	
N.N.[Cl][Pt][Cl] [cisplatin]			no effect
